Test systems include OVCAR-3 ovarian; MDA-MB-231 breast; OVCAR-5 ovarian; A498 renal; SF-295 CNS; HCC-2998 colon; SF-268 CNS; OVCAR-8 ovarian; MDA-MB-435; MCF7 breast; SW-620 colon; TK-10 renal; K-562 leukemia; NCI/ADR-RES ovarian.
Common to all, as to assay: NCI tumour cell line growth inhibition, 48 h

The results in this text go back to PubChem BioAssay (NCI).

Molecules are shown by their SMILES.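 1) Cells in 96-well plates. 2) Compound, 48 h, 5 concentrations. 3) Linear interpolation between surrounding doses. 4) Unreached endpoint = highest concentration. At the TGI there is no net growth.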 Bounds are passed on as bounds.

As to `COC(=O)C1(C)OC(C)=NC1(C(=O)OC)C(=O)OC` (configuration not stated), the TGI in the experiment with OVCAR-3 ovarian, in the experiment with MDA-MB-231 breast, with OVCAR-5 ovarian, in the experiment on A498 renal, in the experiment on SF-295 CNS and with HCC-2998 colon was more than 100 µM each time. Moreover, the TGI in the experiment on SF-268 CNS, with OVCAR-8 ovarian, in the experiment on MDA-MB-435, in the experiment with MCF7 breast, with SW-620 colon and in the experiment with TK-10 renal was more than 100 µM throughout. Further, the TGI in the experiment on K-562 leukemia and with NCI/ADR-RES ovarian was more than 100 µM in each case.
For the compound `CCN1C(=O)CS/C1=N\NC(=O)CSc1nc2ccccc2c(=O)n1CC`, the TGI with OVCAR-3 ovarian, in the experiment on MDA-MB-231 breast, with OVCAR-5 ovarian, with A498 renal, in the experiment on SF-295 CNS and in the experiment with HCC-2998 colon was more than 100 µM throughout. For the same compound, the TGI in the experiment with SF-268 CNS, in the experiment on OVCAR-8 ovarian, with MDA-MB-435, with MCF7 breast, with SW-620 colon and with TK-10 renal was more than 100 µM in each case. Further, the TGI in the experiment with K-562 leukemia and with NCI/ADR-RES ovarian was more than 100 µM each time.
For `CCCN(CCC)C(=O)c1c(Cl)c2cccnc2n2c(C)cnc12`, the TGI in the experiment with OVCAR-3 ovarian, in the experiment with MDA-MB-231 breast, in the experiment with OVCAR-5 ovarian, in the experiment with A498 renal, in the experiment with SF-295 CNS and in the experiment with HCC-2998 colon was more than 100 µM throughout. For the same compound, the TGI is more than 100 µM in the experiment on SF-268 CNS; more than 100 µM with OVCAR-8 ovarian; 85.3 µM in the experiment on MDA-MB-435; more than 100 µM in the experiment on MCF7 breast; more than 100 µM in the experiment with SW-620 colon; more than 100 µM with TK-10 renal. The TGI with K-562 leukemia and in the experiment on NCI/ADR-RES ovarian was more than 100 µM throughout.
Regarding `CCOC(=O)Oc1ccc2c(c1)c(=O)c1c(NCCCN(CC)CC)ccc3nnn2c31`, the TGI with OVCAR-3 ovarian was 20 µM; in the experiment with MDA-MB-231 breast it was 21.8 µM; with OVCAR-5 ovarian, 33.5 µM; in the experiment on A498 renal, 23.2 µM; with SF-295 CNS it was 21.3 µM; in the experiment with HCC-2998 colon, 21.8 µM. Moreover, the TGI in the experiment with SF-268 CNS amounted to 28.2 µM; in the experiment with OVCAR-8 ovarian, 19.5 µM; with MDA-MB-435 it was 18.3 µM; in the experiment on MCF7 breast, 15.7 µM; with SW-620 colon, 16.2 µM; with TK-10 renal, 17.5 µM. In addition, the values for the TGI in the experiment on K-562 leukemia and in the experiment with NCI/ADR-RES ovarian were more than 52.7 µM and 28.1 µM, respectively.
In the case of `CC(=O)/C(=C(/Br)I)c1ccccc1`, the TGI worked out at 17.9 µM in the experiment with OVCAR-3 ovarian; 28.7 µM in the experiment on MDA-MB-231 breast; 32.1 µM in the experiment on OVCAR-5 ovarian; 28.5 µM in the experiment on A498 renal; 29 µM with SF-295 CNS; 12.3 µM in the experiment with HCC-2998 colon. The TGI with SF-268 CNS is more than 46.3 µM; with OVCAR-8 ovarian, 28.1 µM; in the experiment on MDA-MB-435 it was 11.9 µM; with MCF7 breast it was 19.1 µM; with SW-620 colon it was 11.4 µM; with TK-10 renal, 36.3 µM. For the same compound, the TGI with K-562 leukemia is more than 31.6 µM; with NCI/ADR-RES ovarian it was 45 µM.
On to `COC(=O)C1=NN2c3ccccc3CN([C@@H](C)c3ccccc3)C(=O)[C@H]2[C@@H]1C`, for which the TGI with OVCAR-3 ovarian, with MDA-MB-231 breast, in the experiment with OVCAR-5 ovarian, in the experiment with A498 renal, in the experiment on SF-295 CNS and in the experiment on HCC-2998 colon was more than 100 µM each time. Moreover, the TGI in the experiment with SF-268 CNS, in the experiment on OVCAR-8 ovarian, in the experiment with MDA-MB-435, in the experiment on MCF7 breast, in the experiment on SW-620 colon and with TK-10 renal was more than 100 µM each time. For the same compound, the TGI with K-562 leukemia and with NCI/ADR-RES ovarian was more than 100 µM each time.
With `Nc1nc(NCCOCP(=O)(O)O)c(N)c(=O)[nH]1`, the TGI with OVCAR-3 ovarian, in the experiment on MDA-MB-231 breast, in the experiment on OVCAR-5 ovarian, with A498 renal, with SF-295 CNS and in the experiment on HCC-2998 colon was more than 100 µM in each case. Moreover, the TGI with SF-268 CNS, with OVCAR-8 ovarian, in the experiment with MDA-MB-435, in the experiment on MCF7 breast, with SW-620 colon and with TK-10 renal was more than 100 µM throughout. Also, the TGI in the experiment with K-562 leukemia and in the experiment with NCI/ADR-RES ovarian was more than 100 µM in each case.
Take `O=C(O)CO/N=C1/C(c2c(O)[nH]c3ccccc23)=Nc2ccccc21`: the TGI in the experiment on OVCAR-3 ovarian is 69.9 µM; in the experiment with MDA-MB-231 breast, more than 100 µM; in the experiment with OVCAR-5 ovarian it was more than 100 µM; with A498 renal it was more than 100 µM; in the experiment with SF-295 CNS it was more than 100 µM; with HCC-2998 colon, more than 100 µM. Further, the TGI with SF-268 CNS, in the experiment with OVCAR-8 ovarian, in the experiment on MDA-MB-435, with MCF7 breast, in the experiment with SW-620 colon and in the experiment with TK-10 renal was more than 100 µM throughout. Further, the TGI with K-562 leukemia and with NCI/ADR-RES ovarian was more than 100 µM throughout.
